Test results as given in PubChem BioAssay (NCI).
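Briefly, cells in 96-well plates were exposed to five compound concentrations for 48 h, and endpoints were estimated by linear interpolation. TGI marks complete inhibition of growth.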

What was measured:
Experiment in all cases: NCI tumour cell line growth inhibition, 48 h
LOX IMVI melanoma = test system: LOX IMVI melanoma
UACC-62 melanoma = test system: UACC-62 melanoma
EKVX NSCLC = test system: EKVX NSCLC
RXF 393 renal = test system: RXF 393 renal
KM12 colon = test system: KM12 colon
MALME-3M melanoma = test system: MALME-3M melanoma
SK-OV-3 ovarian = test system: SK-OV-3 ovarian
HT29 colon = test system: HT29 colon
OVCAR-8 ovarian = test system: OVCAR-8 ovarian
K-562 leukemia = test system: K-562 leukemia
OVCAR-3 ovarian = test system: OVCAR-3 ovarian
SW-620 colon = test system: SW-620 colon
UACC-257 melanoma = test system: UACC-257 melanoma
NCI-H460 lung = test system: NCI-H460 lung
SNB-75 CNS = test system: SNB-75 CNS
SNB-19 CNS = test system: SNB-19 CNS
M14 melanoma = test system: M14 melanoma
TK-10 renal = test system: TK-10 renal
SF-268 CNS = test system: SF-268 CNS
HOP-62 NSCLC = test system: HOP-62 NSCLC
ACHN renal = test system: ACHN renal
SF-539 CNS = test system: SF-539 CNS
U251 CNS = test system: U251 CNS
786-0 renal = test system: 786-0 renal
HCT-15 colon = test system: HCT-15 colon
NCI-H23 lung = test system: NCI-H23 lung
A498 renal = test system: A498 renal
HL-60(TB) leukemia = test system: HL-60(TB) leukemia
A549 NSCLC = test system: A549 NSCLC
HCT-116 colon = test system: HCT-116 colon
CCRF-CEM leukemia = test system: CCRF-CEM leukemia
MOLT-4 leukemia = test system: MOLT-4 leukemia
SF-295 CNS = test system: SF-295 CNS
RPMI-8226 leukemia = test system: RPMI-8226 leukemia
DMS 114 small cell lung = test system: DMS 114 small cell lung
UO-31 renal = test system: UO-31 renal
SNB-78 CNS = test system: SNB-78 CNS
LXFL 529 NSCLC = test system: LXFL 529 NSCLC
XF 498 CNS = test system: XF 498 CNS
M19-MEL melanoma = test system: M19-MEL melanoma
SN12C renal = test system: SN12C renal
OVCAR-4 ovarian = test system: OVCAR-4 ovarian
HOP-18 NSCLC = test system: HOP-18 NSCLC
SK-MEL-28 melanoma = test system: SK-MEL-28 melanoma
NCI-H522 lung = test system: NCI-H522 lung
KM20L2 colon = test system: KM20L2 colon
HOP-92 NSCLC = test system: HOP-92 NSCLC
SK-MEL-2 melanoma = test system: SK-MEL-2 melanoma
DMS 273 small cell lung = test system: DMS 273 small cell lung
IGROV1 ovarian = test system: IGROV1 ovarian
SK-MEL-5 melanoma = test system: SK-MEL-5 melanoma
OVCAR-5 ovarian = test system: OVCAR-5 ovarian
COLO 205 colon = test system: COLO 205 colon
DLD-1 colon = test system: DLD-1 colon
RXF-631 renal = test system: RXF-631 renal
CAKI-1 renal = test system: CAKI-1 renal
NCI-H226 lung = test system: NCI-H226 lung
HCC-2998 colon = test system: HCC-2998 colon
SR leukemia = test system: SR leukemia

## NC(N)=NS(=O)(=O)c1ccc(NC(=O)c2cccc3c(Nc4ccc(S(=O)(=O)N=C(N)N)cc4)c4ccccc4nc23)cc1
LOX IMVI melanoma
  TGI: > 100 µM
UACC-62 melanoma
  TGI: > 100 µM
EKVX NSCLC
  TGI: > 100 µM
RXF 393 renal
  TGI: > 100 µM
KM12 colon
  TGI: > 100 µM
MALME-3M melanoma
  TGI: > 100 µM
SK-OV-3 ovarian
  TGI: > 100 µM
HT29 colon
  TGI: > 100 µM
OVCAR-8 ovarian
  TGI: > 100 µM
K-562 leukemia
  TGI: > 100 µM
OVCAR-3 ovarian
  TGI: > 100 µM
SW-620 colon
  TGI: > 100 µM
UACC-257 melanoma
  TGI: > 100 µM
NCI-H460 lung
  TGI: > 100 µM
SNB-75 CNS
  TGI: 81.5 µM
SNB-19 CNS
  TGI: > 100 µM
M14 melanoma
  TGI: > 100 µM
TK-10 renal
  TGI: > 100 µM
SF-268 CNS
  TGI: > 100 µM
HOP-62 NSCLC
  TGI: > 100 µM
ACHN renal
  TGI: > 100 µM
SF-539 CNS
  TGI: > 100 µM
U251 CNS
  TGI: > 100 µM
786-0 renal
  TGI: > 100 µM
HCT-15 colon
  TGI: > 100 µM
NCI-H23 lung
  TGI: > 100 µM
A498 renal
  TGI: > 100 µM
HL-60(TB) leukemia
  TGI: > 100 µM
A549 NSCLC
  TGI: > 100 µM
HCT-116 colon
  TGI: > 100 µM
CCRF-CEM leukemia
  TGI: > 100 µM
MOLT-4 leukemia
  TGI: > 100 µM
SF-295 CNS
  TGI: > 100 µM
RPMI-8226 leukemia
  TGI: > 100 µM
DMS 114 small cell lung
  TGI: > 100 µM
UO-31 renal
  TGI: > 100 µM
SNB-78 CNS
  TGI: > 100 µM
LXFL 529 NSCLC
  TGI: > 100 µM
XF 498 CNS
  TGI: > 100 µM
M19-MEL melanoma
  TGI: > 100 µM
SN12C renal
  TGI: > 100 µM
OVCAR-4 ovarian
  TGI: > 100 µM
HOP-18 NSCLC
  TGI: > 100 µM
SK-MEL-28 melanoma
  TGI: > 100 µM
NCI-H522 lung
  TGI: > 100 µM
KM20L2 colon
  TGI: > 100 µM
HOP-92 NSCLC
  TGI: > 100 µM
SK-MEL-2 melanoma
  TGI: > 100 µM
DMS 273 small cell lung
  TGI: > 100 µM
IGROV1 ovarian
  TGI: > 100 µM
SK-MEL-5 melanoma
  TGI: > 100 µM
OVCAR-5 ovarian
  TGI: > 100 µM
COLO 205 colon
  TGI: > 100 µM
DLD-1 colon
  TGI: > 100 µM
RXF-631 renal
  TGI: > 100 µM

## O=C(/C=C/c1ccccc1O)c1cccs1
LOX IMVI melanoma
  TGI: > 100 µM
UACC-62 melanoma
  TGI: > 100 µM
EKVX NSCLC
  TGI: > 100 µM
RXF 393 renal
  TGI: > 100 µM
KM12 colon
  TGI: > 100 µM
MALME-3M melanoma
  TGI: > 100 µM
SK-OV-3 ovarian
  TGI: > 100 µM
CAKI-1 renal
  TGI: > 100 µM
HT29 colon
  TGI: > 100 µM
OVCAR-8 ovarian
  TGI: > 100 µM
K-562 leukemia
  TGI: > 100 µM
NCI-H226 lung
  TGI: > 100 µM
OVCAR-3 ovarian
  TGI: > 100 µM
SW-620 colon
  TGI: > 100 µM
UACC-257 melanoma
  TGI: > 100 µM
NCI-H460 lung
  TGI: > 100 µM
HCC-2998 colon
  TGI: > 100 µM
SNB-75 CNS
  TGI: > 100 µM
SNB-19 CNS
  TGI: > 100 µM
M14 melanoma
  TGI: > 100 µM
TK-10 renal
  TGI: > 100 µM
SF-268 CNS
  TGI: > 100 µM
HOP-62 NSCLC
  TGI: > 100 µM
ACHN renal
  TGI: > 100 µM
SF-539 CNS
  TGI: > 100 µM
U251 CNS
  TGI: > 100 µM
786-0 renal
  TGI: > 100 µM
HCT-15 colon
  TGI: > 100 µM
NCI-H23 lung
  TGI: > 100 µM
A498 renal
  TGI: 45.5 µM
HL-60(TB) leukemia
  TGI: > 100 µM
A549 NSCLC
  TGI: > 100 µM
HCT-116 colon
  TGI: > 100 µM
CCRF-CEM leukemia
  TGI: > 100 µM
MOLT-4 leukemia
  TGI: > 100 µM
SF-295 CNS
  TGI: > 100 µM
UO-31 renal
  TGI: > 100 µM
SNB-78 CNS
  TGI: > 100 µM
LXFL 529 NSCLC
  TGI: > 100 µM
XF 498 CNS
  TGI: > 100 µM
M19-MEL melanoma
  TGI: > 100 µM
SN12C renal
  TGI: > 100 µM
OVCAR-4 ovarian
  TGI: > 100 µM
HOP-18 NSCLC
  TGI: > 100 µM
SK-MEL-28 melanoma
  TGI: > 100 µM
NCI-H522 lung
  TGI: > 100 µM
SR leukemia
  TGI: > 100 µM
KM20L2 colon
  TGI: > 100 µM
SK-MEL-2 melanoma
  TGI: > 100 µM
DMS 273 small cell lung
  TGI: > 100 µM
IGROV1 ovarian
  TGI: > 100 µM
SK-MEL-5 melanoma
  TGI: > 100 µM
OVCAR-5 ovarian
  TGI: > 100 µM
COLO 205 colon
  TGI: > 100 µM
DLD-1 colon
  TGI: > 100 µM
RXF-631 renal
  TGI: > 100 µM
